Source: patent US4014876A, “Isoxazole derivatives” (Shionogi & Co., Ltd., priority 1969, dated 1977)

Tests used:
blood-sugar = assay: Hypoglycemic activity in alloxan-treated rats (Blood-Sugar-Level, oral); format: in vivo, rat (alloxan-treated adult male); details: for Percentage of Blood-Sugar-Level (B.S.L.), 1 hr after / Percentage of Blood-Sugar-Level (B.S.L.), 3 hr after / Percentage of Blood-Sugar-Level (B.S.L.), 5 hr after: alloxan rats, change vs control; for Percentage of Blood-Sugar-Level (B.S.L.), Total: total of 1, 3 and 5 hr percentages
Protocol: Assay and control groups of rats were used, each group consisting of 5 adult male rats weighing 200 to 250 g and showing about 250 to 350 mg/dl-blood as the initial blood-sugar value, after being treated once with 50 mg/kg of alloxan (i.v.) one week before the assay. The assay and control groups were orally administered a 5 % gum arabic suspension with and without the test compound, respectively. Measurement of the absolute blood-sugar value was carried out thrice (i.e. 1 hour after, 3 hours after, and 5 hours after administration) and the values were compared with those of the control group. Blood-sugar values were determined by an assay technique using the marketed enzymatic glucose reagent: Glucostat (Trade Mark of Worthington Biochemical Corporation, Freehold, N.J., U.S.A.).
In effect, the marks + and -correspond to increasing and decreasing
tendency of B.S.L., respectively, after eliminating the difference in
value between the assay and control groups.

Blood Free-Fatty-Acid = Blood Free-Fatty-Acid (B.F.F.A.) lowering activity in fasted rats (oral); format: in vivo, rat (male); details: 100 mg/kg p.o.; for B.F.F.A. Level, 1 hr after / B.F.F.A. Level, 3 hr after / B.F.F.A. Level, 5 hr after: fasted rats; for B.F.F.A. Level, Total: total of 1, 3 and 5 hr values
Protocol: Several groups of male rats weighing 200 to 250 g, each group consisting of 5 rats, were used in the test. Assay and control groups were fasted during 24 hours and then orally given 5 % gum arabic suspension with and without the test compound (100 mg/kg p.o.), respectively. All animals tested were decapitated 1 hour after, 3 hours after, or 5 hours after the treatment, and blood samples were drawn for B.F.F.A. value determination. A percentage factor, as B.F.F.A. Level, was determined according to the Itaya-Ui method [K. Itaya, et al.: J. Lipid Research, Vol. 6, 18 (1965)], calculated by the following equation: [formula] b) Result
B.F.F.A. Levels are shown in Table II, together with + and - marks and the total of the three values for each compound.

in vivo = details: mouse, oral, mice, 24 hours observation
Source text: For each dose 10 male mice were used, their body-weights ranging from 19 to 21 grams. […] The LD50 means the amount of the test compound being expected to kill just half the number of the animals treated.

Cc1cc(C(=O)N(C)C(=O)N(C)C)no1 [Compound 5, N,N',N'-trimethyl-N-(5-methyl-3-isoxazolylcarbonyl)urea]
Percentage of Blood-Sugar-Level (B.S.L.), 1 hr after (blood-sugar; 10 mg/kg dose): -19%
Percentage of Blood-Sugar-Level (B.S.L.), 3 hr after (blood-sugar; 10 mg/kg dose): -39%
Percentage of Blood-Sugar-Level (B.S.L.), 5 hr after (blood-sugar; 10 mg/kg dose): -39%
Percentage of Blood-Sugar-Level (B.S.L.), Total (blood-sugar; 10 mg/kg dose): -97%
Percentage of Blood-Sugar-Level (B.S.L.), 1 hr after (blood-sugar; 100 mg/kg dose): -24%
Percentage of Blood-Sugar-Level (B.S.L.), 3 hr after (blood-sugar; 100 mg/kg dose): -40%
Percentage of Blood-Sugar-Level (B.S.L.), 5 hr after (blood-sugar; 100 mg/kg dose): -40%
Percentage of Blood-Sugar-Level (B.S.L.), Total (blood-sugar; 100 mg/kg dose): -104%

Cc1cc(C(=O)NC(=O)NC2CCCCC2)no1 [N'-cyclohexyl-N-(5-methyl-3-isoxazolylcarbonyl)urea]
B.F.F.A. Level, 1 hr after (Blood Free-Fatty-Acid): -27%
B.F.F.A. Level, 3 hr after (Blood Free-Fatty-Acid): -34%
B.F.F.A. Level, 5 hr after (Blood Free-Fatty-Acid): -23%
B.F.F.A. Level, Total (Blood Free-Fatty-Acid): -84%

Cc1cc(C(=O)NC(N)=S)no1 [N-(5-methyl-3-isoxazolylcarbonyl)thiourea]
B.F.F.A. Level, 1 hr after (Blood Free-Fatty-Acid): -60%
B.F.F.A. Level, 3 hr after (Blood Free-Fatty-Acid): -36%
B.F.F.A. Level, 5 hr after (Blood Free-Fatty-Acid): +13%
B.F.F.A. Level, Total (Blood Free-Fatty-Acid): -83%

Cc1cc(C(=O)NC(=O)NC(C)C)no1 [N'-i-propyl-N-(5-methyl-3-isoxazolylcarbonyl)urea]
B.F.F.A. Level, 1 hr after (Blood Free-Fatty-Acid): -75%
B.F.F.A. Level, 3 hr after (Blood Free-Fatty-Acid): -67%
B.F.F.A. Level, 5 hr after (Blood Free-Fatty-Acid): -49%
B.F.F.A. Level, Total (Blood Free-Fatty-Acid): -191%
LD50 at 24 h (in vivo): 7000 to 8000 mg/kg

CCCCNC(=O)NC(=O)c1cc(C)on1 [N'-n-butyl-N-(5-methyl-3-isoxazolylcarbonyl)urea]
B.F.F.A. Level, 1 hr after (Blood Free-Fatty-Acid): -59%
B.F.F.A. Level, 3 hr after (Blood Free-Fatty-Acid): -59%
B.F.F.A. Level, 5 hr after (Blood Free-Fatty-Acid): -30%
B.F.F.A. Level, Total (Blood Free-Fatty-Acid): -129%

Cc1cc(C(=O)NC(=O)N(C)C)no1 [Compound 2, N',N'-dimethyl-N-(5-methyl-3-isoxazolylcarbonyl)urea]
Percentage of Blood-Sugar-Level (B.S.L.), 1 hr after (blood-sugar; 10 mg/kg dose): -45%
Percentage of Blood-Sugar-Level (B.S.L.), 3 hr after (blood-sugar; 10 mg/kg dose): -59%
Percentage of Blood-Sugar-Level (B.S.L.), 5 hr after (blood-sugar; 10 mg/kg dose): -29%
Percentage of Blood-Sugar-Level (B.S.L.), 1 hr after (blood-sugar; 100 mg/kg dose): -33%
Percentage of Blood-Sugar-Level (B.S.L.), 3 hr after (blood-sugar; 100 mg/kg dose): -59%
Percentage of Blood-Sugar-Level (B.S.L.), 5 hr after (blood-sugar; 100 mg/kg dose): -59%
Percentage of Blood-Sugar-Level (B.S.L.), Total (blood-sugar; 100 mg/kg dose): -151%

Cc1cc(C(=O)NC(=N)N)no1 [Compound 3, 1-(5-methyl-3-isoxazolylcarbonyl)guanidine]
Percentage of Blood-Sugar-Level (B.S.L.), 1 hr after (blood-sugar; 10 mg/kg dose): -11%
Percentage of Blood-Sugar-Level (B.S.L.), 3 hr after (blood-sugar; 10 mg/kg dose): -39%
Percentage of Blood-Sugar-Level (B.S.L.), 5 hr after (blood-sugar; 10 mg/kg dose): -32%
Percentage of Blood-Sugar-Level (B.S.L.), Total (blood-sugar; 10 mg/kg dose): -82%
Percentage of Blood-Sugar-Level (B.S.L.), 1 hr after (blood-sugar; 100 mg/kg dose): -30%
Percentage of Blood-Sugar-Level (B.S.L.), 3 hr after (blood-sugar; 100 mg/kg dose): -56%
Percentage of Blood-Sugar-Level (B.S.L.), 5 hr after (blood-sugar; 100 mg/kg dose): -52%
Percentage of Blood-Sugar-Level (B.S.L.), Total (blood-sugar; 100 mg/kg dose): -138%
B.F.F.A. Level, 1 hr after (Blood Free-Fatty-Acid): -70%
B.F.F.A. Level, 3 hr after (Blood Free-Fatty-Acid): -15%
B.F.F.A. Level, 5 hr after (Blood Free-Fatty-Acid): -8%
B.F.F.A. Level, Total (Blood Free-Fatty-Acid): -93%
LD50 at 24 h (in vivo): 2000 to 3000 mg/kg

CCCCNC(=O)NS(=O)(=O)c1ccc(C)cc1 [Compound 6, Tolbutamide, reference compound]
Percentage of Blood-Sugar-Level (B.S.L.), 1 hr after (blood-sugar; 100 mg/kg dose): -9%
Percentage of Blood-Sugar-Level (B.S.L.), 3 hr after (blood-sugar; 100 mg/kg dose): -26%
Percentage of Blood-Sugar-Level (B.S.L.), 5 hr after (blood-sugar; 100 mg/kg dose): -23%
Percentage of Blood-Sugar-Level (B.S.L.), Total (blood-sugar; 100 mg/kg dose): -58%
B.F.F.A. Level, 1 hr after (Blood Free-Fatty-Acid): -40%
B.F.F.A. Level, 3 hr after (Blood Free-Fatty-Acid): -45%
B.F.F.A. Level, 5 hr after (Blood Free-Fatty-Acid): 0%
B.F.F.A. Level, Total (Blood Free-Fatty-Acid): -85%

CCc1cc(C(=O)NC(=O)NC(C)C)no1 [Compound 1, N'-i-propyl-N-(5-ethyl-3-isoxazolylcarbonyl)urea]
Percentage of Blood-Sugar-Level (B.S.L.), 1 hr after (blood-sugar; 10 mg/kg dose): -8%
Percentage of Blood-Sugar-Level (B.S.L.), 3 hr after (blood-sugar; 10 mg/kg dose): +2%
Percentage of Blood-Sugar-Level (B.S.L.), 5 hr after (blood-sugar; 10 mg/kg dose): +2%
Percentage of Blood-Sugar-Level (B.S.L.), Total (blood-sugar; 10 mg/kg dose): -4%
Percentage of Blood-Sugar-Level (B.S.L.), 1 hr after (blood-sugar; 100 mg/kg dose): -54%
Percentage of Blood-Sugar-Level (B.S.L.), 3 hr after (blood-sugar; 100 mg/kg dose): -63%
Percentage of Blood-Sugar-Level (B.S.L.), 5 hr after (blood-sugar; 100 mg/kg dose): -43%
Percentage of Blood-Sugar-Level (B.S.L.), Total (blood-sugar; 100 mg/kg dose): -160%

CNC(=O)N(C)C(=O)c1cc(C)on1 [Compound 4, N,N'-dimethyl-N-(5-methyl-3-isoxazolylcarbonyl)urea]
Percentage of Blood-Sugar-Level (B.S.L.), 1 hr after (blood-sugar; 10 mg/kg dose): -15%
Percentage of Blood-Sugar-Level (B.S.L.), 3 hr after (blood-sugar; 10 mg/kg dose): -36%
Percentage of Blood-Sugar-Level (B.S.L.), 5 hr after (blood-sugar; 10 mg/kg dose): -20%
Percentage of Blood-Sugar-Level (B.S.L.), Total (blood-sugar; 10 mg/kg dose): -71%
Percentage of Blood-Sugar-Level (B.S.L.), 1 hr after (blood-sugar; 100 mg/kg dose): -22%
Percentage of Blood-Sugar-Level (B.S.L.), 3 hr after (blood-sugar; 100 mg/kg dose): -51%
Percentage of Blood-Sugar-Level (B.S.L.), 5 hr after (blood-sugar; 100 mg/kg dose): -59%
Percentage of Blood-Sugar-Level (B.S.L.), Total (blood-sugar; 100 mg/kg dose): -132%

Cc1cc(C(=O)NC(N)=O)no1 [N-(5-methyl-3-isoxazolylcarbonyl)urea]
LD50 at 24 h (in vivo): > 10000 mg/kg
